Data on three compounds can be found in patent US12378192B2, “Crystalline form of capsid protein assembly inhibitor containing N hetero five-membered ring, and application thereof” (CHIA TAI TIANQING PHARMACEUTICAL GROUP CO., LTD., priority 2019, dated 2025).

One data set deals with HBV DNA in HepAD38 cells. The data set can be described thus: In-vitro inhibitory activity against HBV DNA in HepAD38 cells. The class given is cell-based. Conditions: Hepatitis B virus, 144 h, 6 days treatment, intracellular capsid HBV DNA by qPCR, read-out: EC50 (anti-HBV activity). How it is done: (§1) A vial of HepG2.2.15 cells (Wuhan Institute of Virology) or HepAD38 cells in good condition and at logarithmic growth phase was washed once with 5 mL of PBS. 3 mL of pancreatin was added. The cells were digested at room temperature for 5 min, then 2 mL of pancreatin was discarded. The cells were further digested in a cell incubator for 10 min, and observed under a microscope (whether the cells are round in shape, and whether the cells are separated or adhered). 10 mL of complete medium was added to terminate the digestion. The cells was mixed using a pipette to obtain a single cell suspension. 10 μL of the cell suspension was loaded on a cell counter for counting, and diluted with the complete medium to adjust the cell density to 1×10^5 cells/mL. The cells were seeded on a 24-well plate (pre-coated with 50 μg/mL Collagen I solution) at 1 mL/well using a multi-channel pipette and cultured in a thermostatic CO2 incubator for 48 h.
(§2) A solution of the compound dissolved in DMSO was diluted to 10 concentrations in a 2-fold gradient using complete medium. The cells were treated with the compound for 6 days with the media containing the compound refreshed every 72 h. […] HBV DNA in the intracellular viral capsid was measured by real-time fluorescent quantitative PCR. The inhibition rate was calculated according to the Ct value, and the EC50 value was calculated by four-parameter fitting.

A short description of data set [1]: Plasma protein binding assay (equilibrium dialysis), mouse plasma. In kind it is in vitro ADME. The protocol: (§3) Preparation of plasma samples: 5 μL of test compound solution or positive control was added to 495 μL of blank plasma of various species (mouse, rat, dog, monkey and human) to obtain plasma sample solutions at plasma concentrations of 1 μM and 10 μM (in acetonitrile).
(§4) The pretreated dialysis membrane was loaded on a high-throughput equilibrium dialysis system. 100 μL of the plasma sample solution and PBS buffer were added to the two sides (sample side and buffer side) of the dialysis membrane respectively (n=3). The system was sealed with a patch and incubated at 37° C. overnight (100 rpm) to achieve dialysis equilibrium. 50 μL samples were taken from the sample side and the buffer side, and the reaction was terminated with glacial acetonitrile containing an internal standard.
(§5) Sample pretreatment: 450 μL of glacial acetonitrile containing an internal standard was added to 50 μL of the sample from the plasma side for precipitation. The mixture was vortexed for 5 min, and centrifuged (12000 rpm, 4° C.) for 10 min. 75 μL of supernatant was taken and diluted with 75 μL of ultrapure water. After being mixed well, 1 μL of the resulting sample was injected for analysis; 250 μL of glacial acetonitrile containing an internal standard was added to 50 μL of the sample from the PBS side for precipitation. The mixture was vortexed for 5 min, and centrifuged (12000 rpm, 4° C.) for 10 min. […]
In general terms: In equilibrium dialysis free small molecules cross a membrane that holds back macromolecules.

Data set [2] in a line: Plasma protein binding assay (equilibrium dialysis), human plasma. The class given is in vitro ADME. How it is done: as §3, §4, §5
Data set [3] in a line: Pharmacokinetic (PK) study in rats. In kind it is in vivo. The note with it: SD rats, PO 20 mg/kg. How it is done: SD rats (B&K Universal, Shanghai) of 180-220 g were randomized into groups of 3 after 3-5 days of acclimatization and administered with the compounds at a dose of 20 mg/kg by oral gavage.
The animals to be tested (SD rats) were fasted for 12 h before administration and fed 4 h after administration, and had free access to water before, after and during the experiment.
After administration, about 0.2 mL of blood was collected from the orbit at 0 min, 15 min, 30 min, 1 h, 2 h, 4 h, 6 h, 8 h, 10 h, 24 h, 30 h and 48 h. After anticoagulation with EDTA-K2, the blood samples were transferred to a centrifuge at 4° C. within 30 min and centrifuged at 4000 rpm for 10 min to separate the plasma. All the plasma samples were collected and immediately stored at −20° C. for testing. 50 μL of the plasma sample to be tested and standard curve sample were taken, and 500 μL of acetonitrile solution containing an internal standard (20 mg/mL diazepam) was added. The reaction system was shaken for 5 min and centrifuged at 12,000 rpm for 10 min. 75 μL of supernatant was taken and diluted with 75 μL of ultrapure water.
After being mixed well, 1 μL of the resulting sample was taken for LC/MS/MS analysis.

Data set [4] can be described thus: Plasma protein binding assay (equilibrium dialysis), rat plasma. In kind it is in vitro ADME. How it is done: as §3, §4, §5
Data set [5] can be described thus: Plasma protein binding assay (equilibrium dialysis), dog plasma. In kind it is in vitro ADME. The protocol: as §3, §4, §5
Data set [6] can be described thus: Plasma protein binding assay (equilibrium dialysis), monkey plasma. The class given is in vitro ADME. The protocol:
as §3, §4, §5

Data set [7] is classed as in vitro ADME. The protocol:
A final incubation system of 300 μL contained 30 μL of liver microsomes (protein concentration: 0.15 mg/mL), 30 μL of NADPH+MgCl2, 3 μL of substrate (in acetonitrile) and 237 μL of PBS. Samples were prepared in duplicate of 0.3 mL for each specie. For each tube, the 270 μL mixed solution of substrates and enzyme and the NADPH solution were separately pre-incubated at 37° C. for 5 min. The 30 μL mixed solution of NADPH+MgCl2 was added for reaction. 50 μL samples were taken at 0 min, 10 min, 30 min and 60 min, and 300 μL of glacial acetonitrile containing an internal standard was added to the samples to terminate the reaction.
Sample pretreatment: 300 μL of glacial acetonitrile containing internal standard diazepam was added to 50 μL of the incubated sample for precipitation. The mixture was vortexed for 5 min, and centrifuged (12000 rpm, 4° C.) for 10 min. 75 μL of supernatant was added to a 96-well plate and diluted with 75 μL of ultrapure water. After being mixed well, 0.5 μL of the resulting sample was injected to a LC-MS/MS system for analysis.

Data set [8] has as its system HBV DNA in HepG2.2.15 cells. The data set can be described thus: In-vitro inhibitory activity against HBV DNA in HepG2.2.15 cells. Conditions: Hepatitis B virus, 144 h, 6 days treatment, intracellular capsid HBV DNA by qPCR, read-out: EC50 (anti-HBV activity). In kind it is cell-based. How it is done: as §1, §2
(In general: Real-time PCR tracks product formation cycle by cycle.)

Data set [9] is described as follows: Stability assay of crystalline form (influential factors: high temperature, high humidity, illumination). The class given is physicochemical. Conditions: for Stability at high humidity, at high temperature or under illumination (in words): related substance and water over the observation items. How it is done:
The crystalline form I of the compound of formula I prepared in Example 2 and the crystalline form II of the compound of formula I prepared in Example 4, each of 500 mg, were separately placed in dry and clean containers, and evenly spread in thin layers as test samples. The samples were completely exposed to experimental conditions of influential factors (40° C., 60° C., 75% RH, 92.5% RH, high temperature and high humidity (40° C., 75% RH)). Samples were taken for analysis on day 10 and day 30. The samples were completely exposed to illumination (visible light of 1,200,000 Lux·hr, UV of 216 W·hr/m^2) at room temperature.
Chromatographic column: Agilent AdvanceBio Peptide C18 (4.6 mm×150 mm, 3.5 μm).
The water content was measured by a Mettler V20 system.
About 10 mg of the sample was dissolved with an appropriate amount of a mixed diluent of acetonitrile-water (70:30) for content assay of related substance.

Setting [10] is: High humidity (92.5% RH), Day 10.
[11] abbreviates: High humidity (92.5% RH), Day 30.
[12] abbreviates: High temperature (40° C.), Day 10.
The mark [13] stands for this setting: High temperature (40° C.), Day 30.
The mark [14] stands for this setting: High temperature (60° C.), Day 10.
Where [15] appears, read: High temperature (60° C.), Day 30.
The mark [16] stands for this setting: High temperature and high humidity (40° C., 75% RH), Day 10.
[17] abbreviates: High temperature and high humidity (40° C., 75% RH), Day 30.

The term EC50 denotes the concentration giving half of the maximal effect. For the compound `Cc1c(C(=O)Nc2ccc(F)c(C#N)c2)c(C)n(C)c1C(=O)C(=O)N[C@@H](C)C(F)(F)F` [Compound of formula I, (S)—N-(3-cyano-4-fluorophenyl)-1,2,4-trimethyl-5-(2-oxo-2-((1,1,1-trifluoropropan-2-yl)amino)acetyl)-1H-pyrrol-3-carboxamide], the EC50 (with HBV DNA in HepAD38 cells; in data set [8]) was at most 10 nM each time. For the same compound, the “Binding rate, Mouse” value in data set [1] (1 μM) turned out to be 75.3%; in data set [1] (10 μM) it was 74.5%. Also, the “Binding rate, Human” value was determined as 94.0% in [2] (1 μM) and 93.7% in data set [2] (10 μM). This compound showed a F in [3] of 57%. Further, the “Binding rate, Rat” value in [4] (1 μM) is recorded as 82.0%; in data set [4] (10 μM), 79.2%. Further, the “Binding rate, Dog” value in data set [5] (1 μM) and in data set [5] (10 μM) was 85.9% throughout. In addition, the “Binding rate, Monkey” value amounted to 90.7% in data set [6] (1 μM) and 90.6% in data set [6] (10 μM). Further, in [7], the “Residual content after 60 min, Human liver microsome” value came out at 78.8%. Besides, in data set [7], the “Residual content after 60 min, Mouse liver microsome” value was determined as 67.1%. Besides, the “Residual content after 60 min, Rat liver microsome” value in data set [7] was found to be 65.0%.
On to `Cc1c(C(=O)Nc2ccc(F)c(C#N)c2)c(C)n(C)c1C(=O)C(=O)N[C@@H](C)C(F)(F)F` [crystalline form I, (S)—N-(3-cyano-4-fluorophenyl)-1,2,4-trimethyl-5-(2-oxo-2-((1,1,1-trifluoropropan-2-yl)amino)acetyl)-1H-pyrrol-3-carboxamide], for which the “Related substance (total impurities)” value came out at 0.55% in [9] (Day 0); 0.72% in data set [9] (High humidity (75% RH), Day 10); 0.66% in data set [9] (High humidity (75% RH), Day 30); 0.69% in data set [9] (setting [10]); 0.66% in [9] (setting [11]); 0.66% in data set [9] (setting [12]). Also, the “Related substance (total impurities)” value in [9] (setting [13]) came to 0.63%; in data set [9] (setting [14]) it was 0.66%; in [9] (setting [15]) it was 0.60%; in [9] (setting [16]), 0.64%; in data set [9] (setting [17]) it was 0.64%; in data set [9] (Illumination, Day 10), 0.63%. Also, the Water in [9] (Day 0) came out at 0.27%; in [9] (High humidity (75% RH), Day 10), 0.19%; in data set [9] (High humidity (75% RH), Day 30) it was 0.20%; in data set [9] (setting [10]), 0.21%; in data set [9] (setting [11]), 0.26%; in [9] (setting [12]), 0.18%. In addition, the Water was 0.19% in data set [9] (setting [13]); 0.20% in data set [9] (setting [14]); 0.18% in data set [9] (setting [15]); 0.17% in data set [9] (setting [16]); 0.22% in data set [9] (setting [17]); 0.16% in data set [9] (Illumination, Day 10). The “Stability at high humidity, at high temperature or under illumination (in words)” value in data set [9] is “good stability”.
Regarding `Cc1c(C(=O)Nc2ccc(F)c(C#N)c2)c(C)n(C)c1C(=O)C(=O)N[C@@H](C)C(F)(F)F` [crystalline form II, (S)—N-(3-cyano-4-fluorophenyl)-1,2,4-trimethyl-5-(2-oxo-2-((1,1,1-trifluoropropan-2-yl)amino)acetyl)-1H-pyrrol-3-carboxamide], the “Related substance (total impurities)” value in data set [9] (Day 0) turned out to be 0.24%; in data set [9] (High humidity (75% RH), Day 10), 0.23%; in [9] (High humidity (75% RH), Day 30), 0.25%; in data set [9] (setting [10]), 0.23%; in data set [9] (setting [11]), 0.24%; in [9] (setting [12]), 0.22%. Besides, the “Related substance (total impurities)” value in data set [9] (setting [13]) turned out to be 0.24%; in data set [9] (setting [14]), 0.22%; in data set [9] (setting [15]), 0.24%; in [9] (setting [16]), 0.24%; in data set [9] (setting [17]), 0.24%; in [9] (Illumination, Day 10) it was 0.27%. Besides, the Water stood at 0.22% in [9] (Day 0); 0.22% in [9] (High humidity (75% RH), Day 10); 0.21% in data set [9] (High humidity (75% RH), Day 30); 0.22% in data set [9] (setting [10]); 0.21% in [9] (setting [11]); 0.20% in [9] (setting [12]). Besides, the Water came out at 0.19% in data set [9] (setting [13]); 0.18% in data set [9] (setting [14]); 0.18% in [9] (setting [15]); 0.24% in data set [9] (setting [16]); 0.21% in data set [9] (setting [17]); 0.22% in data set [9] (Illumination, Day 10). For the same compound, the “Stability at high humidity, at high temperature or under illumination (in words)” value in data set [9] is “good stability”.
